The results in this text go back to PMC8776063, “Aurora Kinase A Is Involved in Controlling the Localization of Aquaporin-2 in Renal Principal Cells” (International Journal of Molecular Sciences, 2022).

One assay addresses T1, PHKG2 (Homo sapiens, UniProt P15735).
T1 construct: purchased in-house thermal shift (DSF) kinase panel (SGC Frankfurt); Promega NanoBRET for AURKA/B/C
T1 sequence (P15735 6-293): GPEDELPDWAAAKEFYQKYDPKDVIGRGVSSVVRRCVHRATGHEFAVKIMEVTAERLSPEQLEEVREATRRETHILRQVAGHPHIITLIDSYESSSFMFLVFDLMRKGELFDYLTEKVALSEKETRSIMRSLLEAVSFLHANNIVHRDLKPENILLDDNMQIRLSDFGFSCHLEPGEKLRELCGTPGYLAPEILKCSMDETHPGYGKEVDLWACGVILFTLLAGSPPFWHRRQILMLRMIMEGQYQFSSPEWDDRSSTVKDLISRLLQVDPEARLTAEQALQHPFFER
The assay is described as follows: Thermal shift assay. The note with it: read-out: ΔTm PHKG2. It is filed as binding.

For another assay, the system named is primary IMCD cells. The assay is described as follows: F-actin stress fiber staining (phalloidin). Format: cell-based, rat. The note with it: compound 20 µM, 1 h.
Another assay deals with T2, MAPK1 (Homo sapiens, UniProt P28482).
T2 construct: purchased in-house thermal shift (DSF) kinase panel (SGC Frankfurt); Promega NanoBRET for AURKA/B/C
T2 sequence (P28482 whole entry): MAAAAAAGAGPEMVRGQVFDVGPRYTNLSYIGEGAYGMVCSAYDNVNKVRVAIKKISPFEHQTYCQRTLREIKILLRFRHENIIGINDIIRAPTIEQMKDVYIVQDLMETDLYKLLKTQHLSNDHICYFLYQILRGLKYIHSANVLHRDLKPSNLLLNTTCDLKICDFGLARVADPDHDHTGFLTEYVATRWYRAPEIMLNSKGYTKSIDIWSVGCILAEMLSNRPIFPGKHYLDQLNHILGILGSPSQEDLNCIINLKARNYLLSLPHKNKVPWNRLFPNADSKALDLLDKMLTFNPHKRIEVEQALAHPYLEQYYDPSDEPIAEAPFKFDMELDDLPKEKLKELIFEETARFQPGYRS
The assay is described as follows: Thermal shift assay. It is filed as binding. The note with it: compound 10 µM; n = 3.

Another assay has as its target T3, GSG2 (Homo sapiens, UniProt Q8TF76).
T3 construct: purchased in-house thermal shift (DSF) kinase panel (SGC Frankfurt); Promega NanoBRET for AURKA/B/C
T3 sequence (Q8TF76 465-798): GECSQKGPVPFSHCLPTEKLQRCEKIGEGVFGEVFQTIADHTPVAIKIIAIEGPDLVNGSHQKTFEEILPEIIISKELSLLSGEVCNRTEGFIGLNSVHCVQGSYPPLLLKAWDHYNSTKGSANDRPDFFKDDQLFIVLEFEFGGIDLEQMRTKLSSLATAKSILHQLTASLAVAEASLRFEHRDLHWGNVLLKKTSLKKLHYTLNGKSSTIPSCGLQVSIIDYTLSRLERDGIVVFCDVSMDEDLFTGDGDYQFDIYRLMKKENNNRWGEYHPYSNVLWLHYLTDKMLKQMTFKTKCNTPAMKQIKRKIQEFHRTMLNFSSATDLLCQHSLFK
The assay is described as follows: Thermal shift assay. Format: binding. The note with it: read-out: ΔTm GSG2.

For the next assay, the target named is T4, STK10 (Homo sapiens, UniProt O94804).
T4 construct: purchased in-house thermal shift (DSF) kinase panel (SGC Frankfurt); Promega NanoBRET for AURKA/B/C
T4 sequence (O94804 18-317): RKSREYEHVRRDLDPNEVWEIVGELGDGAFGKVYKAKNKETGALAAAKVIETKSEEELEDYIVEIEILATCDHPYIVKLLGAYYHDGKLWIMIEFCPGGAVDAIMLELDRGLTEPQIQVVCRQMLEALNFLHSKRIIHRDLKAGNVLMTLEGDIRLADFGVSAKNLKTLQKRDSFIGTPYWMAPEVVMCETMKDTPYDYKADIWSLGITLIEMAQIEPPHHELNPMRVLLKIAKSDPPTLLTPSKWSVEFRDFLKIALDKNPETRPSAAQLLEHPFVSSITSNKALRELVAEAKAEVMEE
The assay is described as follows: Thermal shift assay. The note with it: read-out: ΔTm STK10. It is filed as binding.

The target in a further assay is T5, AURKA (Homo sapiens, UniProt O14965).
T5 construct: purchased in-house thermal shift (DSF) kinase panel (SGC Frankfurt); Promega NanoBRET for AURKA/B/C
T5 sequence (O14965 122-403): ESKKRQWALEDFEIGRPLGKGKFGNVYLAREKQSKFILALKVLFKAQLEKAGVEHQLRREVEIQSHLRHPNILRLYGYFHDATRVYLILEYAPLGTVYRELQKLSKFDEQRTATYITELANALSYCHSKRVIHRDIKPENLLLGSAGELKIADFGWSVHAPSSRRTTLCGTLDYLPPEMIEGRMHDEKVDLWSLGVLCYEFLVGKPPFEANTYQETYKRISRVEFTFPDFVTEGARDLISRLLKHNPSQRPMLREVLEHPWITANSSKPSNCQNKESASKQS
The assay is described as follows: Thermal shift assay. The note with it: read-out: ΔTm AURKA. It is filed as binding.

Another assay has as its target T6, DAPK3 (Homo sapiens, UniProt O43293).
T6 construct: purchased in-house thermal shift (DSF) kinase panel (SGC Frankfurt); Promega NanoBRET for AURKA/B/C
The assay is described as follows: Thermal shift assay. Format: binding. The note with it: read-out: ΔTm DAPK3.

The target in the next assay is AURKB (Homo sapiens, UniProt Q96GD4). The assay is described as follows: NanoBRET assay in HEK293T cells. It is filed as cell-based. Details: full-length wild-type AURKA, AURKB, and AURKC were obtained as plasmids cloned in frame with a C-terminal NanoLuc-fusion; host or cells: HEK293T. In general terms: Bioluminescence resonance energy transfer reports proximity on the nanometre scale.
Sequence of AURKB (Q96GD4 whole entry, the tested form may be a part): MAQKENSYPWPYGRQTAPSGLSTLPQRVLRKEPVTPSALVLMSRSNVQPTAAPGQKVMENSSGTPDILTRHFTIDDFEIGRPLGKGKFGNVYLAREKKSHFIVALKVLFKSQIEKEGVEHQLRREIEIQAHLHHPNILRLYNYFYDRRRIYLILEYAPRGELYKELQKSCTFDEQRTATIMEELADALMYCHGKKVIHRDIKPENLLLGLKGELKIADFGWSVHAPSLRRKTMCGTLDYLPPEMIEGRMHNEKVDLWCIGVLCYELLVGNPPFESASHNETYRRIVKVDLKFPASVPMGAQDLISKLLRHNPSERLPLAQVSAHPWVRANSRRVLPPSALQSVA

In a further assay the target is T7, ULK3 (Homo sapiens, UniProt Q6PHR2).
T7 construct: purchased in-house thermal shift (DSF) kinase panel (SGC Frankfurt); Promega NanoBRET for AURKA/B/C
T7 sequence (Q6PHR2 1-277): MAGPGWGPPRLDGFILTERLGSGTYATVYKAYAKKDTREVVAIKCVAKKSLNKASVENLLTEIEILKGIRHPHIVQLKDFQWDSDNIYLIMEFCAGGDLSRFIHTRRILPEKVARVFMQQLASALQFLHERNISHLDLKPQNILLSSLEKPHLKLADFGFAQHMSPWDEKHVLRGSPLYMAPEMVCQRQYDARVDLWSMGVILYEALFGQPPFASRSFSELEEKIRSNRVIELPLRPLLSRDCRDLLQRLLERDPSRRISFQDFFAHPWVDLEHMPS
The assay is described as follows: Thermal shift assay. It is filed as binding. The note with it: read-out: ΔTm ULK3.

A further assay concerns the target T8, VRK1 (Homo sapiens, UniProt Q99986).
T8 construct: purchased in-house thermal shift (DSF) kinase panel (SGC Frankfurt); Promega NanoBRET for AURKA/B/C
T8 sequence (Q99986 1-396): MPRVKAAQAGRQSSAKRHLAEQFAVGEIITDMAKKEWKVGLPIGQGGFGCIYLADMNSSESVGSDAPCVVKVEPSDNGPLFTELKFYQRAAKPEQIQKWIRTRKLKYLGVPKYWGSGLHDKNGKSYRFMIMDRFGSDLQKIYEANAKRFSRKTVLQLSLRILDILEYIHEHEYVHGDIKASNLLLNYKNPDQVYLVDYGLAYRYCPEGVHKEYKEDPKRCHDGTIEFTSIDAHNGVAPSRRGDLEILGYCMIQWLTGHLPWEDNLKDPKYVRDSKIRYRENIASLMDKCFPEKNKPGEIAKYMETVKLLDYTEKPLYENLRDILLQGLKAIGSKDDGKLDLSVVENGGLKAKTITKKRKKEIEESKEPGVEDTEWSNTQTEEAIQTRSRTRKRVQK
The assay is described as follows: Thermal shift assay. The note with it: read-out: ΔTm VRK1. Format: binding.

A further assay deals with T9, AAK1 (Homo sapiens, UniProt Q2M2I8).
T9 construct: purchased in-house thermal shift (DSF) kinase panel (SGC Frankfurt); Promega NanoBRET for AURKA/B/C
T9 sequence (Q2M2I8 27-365): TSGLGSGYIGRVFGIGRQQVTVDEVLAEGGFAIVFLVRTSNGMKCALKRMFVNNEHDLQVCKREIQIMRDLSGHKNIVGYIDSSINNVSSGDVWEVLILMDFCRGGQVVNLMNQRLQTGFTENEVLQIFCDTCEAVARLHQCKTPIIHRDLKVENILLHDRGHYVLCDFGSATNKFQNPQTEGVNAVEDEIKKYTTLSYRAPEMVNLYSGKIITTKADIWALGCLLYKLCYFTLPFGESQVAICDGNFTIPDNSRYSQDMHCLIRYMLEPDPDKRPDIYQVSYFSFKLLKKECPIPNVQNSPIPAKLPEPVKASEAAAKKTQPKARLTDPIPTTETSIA
The assay is described as follows: Thermal shift assay. Format: binding. The note with it: read-out: ΔTm AAK1.

The target in another assay is T10, FES (Homo sapiens, UniProt P07332).
T10 construct: purchased in-house thermal shift (DSF) kinase panel (SGC Frankfurt); Promega NanoBRET for AURKA/B/C
T10 sequence (P07332 whole entry): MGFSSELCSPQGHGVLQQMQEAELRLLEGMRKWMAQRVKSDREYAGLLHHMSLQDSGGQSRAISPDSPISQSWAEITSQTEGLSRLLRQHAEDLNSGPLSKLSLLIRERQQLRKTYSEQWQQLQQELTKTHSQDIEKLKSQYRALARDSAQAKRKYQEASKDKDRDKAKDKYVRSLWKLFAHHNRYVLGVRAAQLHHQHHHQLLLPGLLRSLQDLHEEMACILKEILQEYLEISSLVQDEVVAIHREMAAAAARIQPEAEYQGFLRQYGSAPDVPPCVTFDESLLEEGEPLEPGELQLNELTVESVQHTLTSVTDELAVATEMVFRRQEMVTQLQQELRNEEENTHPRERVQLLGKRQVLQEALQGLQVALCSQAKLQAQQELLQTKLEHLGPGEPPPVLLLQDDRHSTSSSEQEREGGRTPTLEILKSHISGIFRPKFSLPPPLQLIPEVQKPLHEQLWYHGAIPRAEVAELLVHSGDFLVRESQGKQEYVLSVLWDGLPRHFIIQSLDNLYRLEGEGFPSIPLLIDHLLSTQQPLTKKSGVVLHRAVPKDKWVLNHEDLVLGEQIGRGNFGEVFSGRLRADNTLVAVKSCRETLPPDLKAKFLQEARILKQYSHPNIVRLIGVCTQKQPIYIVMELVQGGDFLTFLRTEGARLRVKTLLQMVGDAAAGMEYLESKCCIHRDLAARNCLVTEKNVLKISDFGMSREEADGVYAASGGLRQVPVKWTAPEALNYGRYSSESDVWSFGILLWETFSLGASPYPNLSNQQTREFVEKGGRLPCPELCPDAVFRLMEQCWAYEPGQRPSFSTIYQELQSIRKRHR
The assay is described as follows: Thermal shift assay. Format: binding. The note with it: read-out: ΔTm FES.

The target of the next assay is T11, MAP2K1 (Homo sapiens, UniProt Q02750).
T11 construct: purchased in-house thermal shift (DSF) kinase panel (SGC Frankfurt); Promega NanoBRET for AURKA/B/C
T11 sequence (Q02750 68-361): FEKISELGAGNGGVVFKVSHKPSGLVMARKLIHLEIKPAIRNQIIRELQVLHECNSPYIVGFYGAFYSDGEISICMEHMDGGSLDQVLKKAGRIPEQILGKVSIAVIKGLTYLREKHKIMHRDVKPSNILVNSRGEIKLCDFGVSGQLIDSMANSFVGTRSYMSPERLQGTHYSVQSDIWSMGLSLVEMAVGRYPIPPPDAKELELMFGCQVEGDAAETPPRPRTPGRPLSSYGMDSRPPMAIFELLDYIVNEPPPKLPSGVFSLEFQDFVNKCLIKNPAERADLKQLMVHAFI
The assay is described as follows: Thermal shift assay. Format: binding. The note with it: read-out: ΔTm MAP2K1.

Where [1] appears, read: NanoBRET, HEK293T cells overexpressing the kinase, Table 2, read-out: AURKB IC50.
The mark [2] stands for this setting: NanoBRET, n = 2, mean, Figure 6B, read-out: affinity to intracellular AURKB.

The ΔTm is the shift of the melting midpoint relative to a reference.

The structures appear in SMILES notation. Like-named read-outs stand apart in the source and are kept apart here.

T6 sequence (O43293 9-289): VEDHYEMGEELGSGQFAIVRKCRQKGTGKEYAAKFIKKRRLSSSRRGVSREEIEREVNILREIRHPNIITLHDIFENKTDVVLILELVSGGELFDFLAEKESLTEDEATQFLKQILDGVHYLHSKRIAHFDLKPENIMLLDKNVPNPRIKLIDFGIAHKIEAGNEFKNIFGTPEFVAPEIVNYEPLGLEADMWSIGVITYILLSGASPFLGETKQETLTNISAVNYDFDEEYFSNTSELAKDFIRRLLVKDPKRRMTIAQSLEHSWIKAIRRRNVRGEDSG

`CCN1CCN(C(=O)Cc2ccc(Nc3ncc(F)c(Nc4ccc(C(=O)Nc5ccccc5Cl)cc4)n3)cc2)CC1` [Aurora-A inhibitor I, reference compound]: the thermal shift (ΔTm) at 10 µM on PHKG2 is 0.7 °C; on MAPK1 it was 0.4 °C; on GSG2 it was 0 °C; at STK10, 3.8 °C; at AURKA, 15.2 °C; on DAPK3, 2.8 °C. The ΔTm at 10 µM amounted to 7.6 °C at ULK3; 0.4 °C on VRK1; 2.3 °C at AAK1; 1.4 °C on FES; 0.2 °C on MAP2K1. In addition, the “effect on actin stress fibers” value with primary IMCD cells is reported as “depolymerization of actin stress fibers”. The compound further showed an IC50 at AURKB of more than 50 µM.
For `CCN1CCN(C(=O)Cc2ccc(Nc3ncc(F)c(Nc4ccc(C(=O)O)cc4)n3)cc2)CC1` [ERJ2-12], the thermal shift (ΔTm) at 10 µM at PHKG2 (compound 10 µM, n = 3) is 0.2 °C; on MAPK1 it was -0.1 °C; at GSG2 (compound 10 µM, n = 3) it was 0 °C; on STK10 (compound 10 µM, n = 3), 2.2 °C; at AURKA (compound 10 µM, n = 3), 9.5 °C; at DAPK3 (compound 10 µM, n = 3) it was 0.7 °C. The ΔTm at 10 µM on ULK3 (compound 10 µM, n = 3) was 4.3 °C; on VRK1 (compound 10 µM, n = 3), 0.1 °C; on AAK1 (compound 10 µM, n = 3) it was 3.8 °C; on FES (compound 10 µM, n = 3), 0.4 °C; on MAP2K1 (compound 10 µM, n = 3), -0.1 °C. For the same compound, in the assay on primary IMCD cells, the “effect on actin stress fibers” value is “resembled those of the control cells”. For the same compound, the IC50 on AURKB (setting [1]) was more than 50 µM.
`CCN1CCN(C(=O)Cc2ccc(Nc3ncc(F)c(Nc4ccc(C(=O)Nc5ccccc5)cc4)n3)cc2)CC1` [ERJ2-11]: the ΔTm at 10 µM on PHKG2 (compound 10 µM, n = 3) is 0.8 °C; at MAPK1, -0.1 °C; at GSG2 (compound 10 µM, n = 3), 0 °C; on STK10 (compound 10 µM, n = 3), 4.8 °C; at AURKA (compound 10 µM, n = 3) it was 13.8 °C; on DAPK3 (compound 10 µM, n = 3) it was 3.5 °C. The ΔTm at 10 µM was 9.8 °C on ULK3 (compound 10 µM, n = 3); 0.1 °C at VRK1 (compound 10 µM, n = 3); 7.3 °C at AAK1 (compound 10 µM, n = 3); 1.7 °C on FES (compound 10 µM, n = 3); 0 °C at MAP2K1 (compound 10 µM, n = 3). Besides, the “effect on actin stress fibers” value in the assay on primary IMCD cells is “promoted or maintained the formation of actin stress fibers”. The IC50 at AURKB (setting [2]) is 43 µM.
As to `O=C(Cc1ccc(Nc2ncc(F)c(Nc3ccc(C(=O)Nc4ccccc4Cl)cc3)n2)cc1)NCCN1CCOCC1` [ERJ2-04], the shift in melting temperature (ΔTm) at 10 µM at PHKG2 (compound 10 µM, n = 3) is 0.3 °C; at MAPK1 it was 0.3 °C; at GSG2 (compound 10 µM, n = 3) it was 0 °C; on STK10 (compound 10 µM, n = 3) it was 0.6 °C; on AURKA (compound 10 µM, n = 3), 13 °C; at DAPK3 (compound 10 µM, n = 3), 2.4 °C. The thermal shift (ΔTm) at 10 µM was found to be 6.2 °C at ULK3 (compound 10 µM, n = 3); 0.3 °C on VRK1 (compound 10 µM, n = 3); 4.4 °C at AAK1 (compound 10 µM, n = 3); 0.5 °C at FES (compound 10 µM, n = 3); 0 °C at MAP2K1 (compound 10 µM, n = 3). Further, in the assay with primary IMCD cells, the “effect on actin stress fibers” value was “Comparable effects”. Further, the IC50 at AURKB (setting [1]) was more than 50 µM.
Consider `NC(=O)Cc1ccc(Nc2ncc(F)c(Nc3ccc(C(=O)Nc4ccccc4Cl)cc3)n2)cc1` [ERJ2-06], for which the ΔTm at 10 µM was 0.9 °C at PHKG2 (compound 10 µM, n = 3); 0.1 °C on MAPK1; 0.2 °C on GSG2 (compound 10 µM, n = 3); 1.4 °C on STK10 (compound 10 µM, n = 3); 15.5 °C at AURKA (compound 10 µM, n = 3); 4.8 °C at DAPK3 (compound 10 µM, n = 3). The ΔTm at 10 µM amounted to 9.4 °C on ULK3 (compound 10 µM, n = 3); 0.2 °C on VRK1 (compound 10 µM, n = 3); 6.8 °C at AAK1 (compound 10 µM, n = 3); 1.4 °C at FES (compound 10 µM, n = 3); 0 °C on MAP2K1 (compound 10 µM, n = 3). In addition, the “effect on actin stress fibers” value with primary IMCD cells is reported as “Comparable effects”. The IC50 on AURKB (setting [2]) amounted to 13.6 µM.
